Experiments:
FR-positive KB tumors = test: Tissue distribution, KB tumor model (Example 16, Table 5); type: in vivo, nude mice; settings: about 20-fold excess of free folate
Protocol: The protocols used in this example are similar to those described in Example 11. The ability of ^99mTc-EC11 (peptide-A1), ^99mTc-EC13 (peptide-A3), and ^99mTc-EC14 (peptide-A2) to target tumors in vivo was assessed using the FR-positive KB tumor model.
FR-positive KB tumor cells (0.25×10^6 per animal) were inoculated subcutaneously in the intracapsular region. Fourteen days after tumor cell inoculation, the animals (n=4/group) were injected intravenously with ^99mTc-EC11, ^99mTc-EC13, or ^99mTc-EC14 at the doses (about 12 μg/kg) of the conjugates shown in Table 5 below. Stocks of ^99mTc-EC11, ^99mTc-EC13, and ^99mTc-EC14 solutions were prepared on the day of use as described above. About a 20-fold excess of free folate (about 200 μg/kg) was co-administered to control animals (n=4/group). […] Selected tissues were removed, weighed, and counted in an automatic gamma counter to determine ^99mTc distribution. Uptake of the radiopharmaceutical in terms of percentage injected dose of wet weight tissue (% ID/g) was calculated by reference to standards prepared from dilutions of the injected preparation.

FR-positive M109 tumors = test: Tissue distribution, subcutaneous M109 tumors (Example 11)
Protocol: The ability of ^99mTc-EC20 to target tumors in vivo was assessed using a FR-positive M109 model.
Four to five week-old mice (Balb/c strain) were purchased from Harlan Sprague Dawley, Inc. (Indianapolis, Ind.) and were maintained on a folate-free diet for a total of three weeks prior to the experiment. Syngeneic, FR-positive M109 tumor cells (1×10^6 per animal) were inoculated in the subcutis of the right axilla two weeks prior to the experiment.
Animals received an approximate 40 μmol/kg i.v. dose of test article in 100 μL volume via a lateral tail vein during brief diethyl ether anesthesia. Four hours post-injection, animals were sacrificed by CO2 asphyxiation, and dissected. Selected tissues were removed, weighed, and counted to determine ^99mTc distribution. CPM values were decay-corrected, and results were tabulated as % injected dose per gram of wet weight tissue.

[1] = 4 hr post intravenous injection

accumulation in FR-positive KB tumors and kidneys on co-administration of free folate (FR-positive KB tumors)	Tumor/Blood (FR-positive M109 tumors; [1])	Compound	accumulation in the kidneys and tumor (FR-positive M109 tumors; 4 hr post i.v.)	Blood (FR-positive M109 tumors; [1])	Heart (FR-positive M109 tumors; [1])	Intestine (FR-positive M109 tumors; [1])	Kidney (FR-positive M109 tumors; [1])	Liver (FR-positive M109 tumors; [1])	Lung (FR-positive M109 tumors; [1])	Muscle (FR-positive M109 tumors; [1])	Spleen (FR-positive M109 tumors; [1])	Stomach (FR-positive M109 tumors; [1])	Tumor (FR-positive M109 tumors; 4 hr post intravenous injection, M109 tumor)
blocked	–	Nc1nc2ncc(CNc3ccc(C(=O)N[C@@H](CCC(=O)N[C@@H](CCC(=O)NC[C@@H]4[NH2+][99Tc-]56(=[O])[S]C[C@@H](C(=O)O)[N]5C(=O)[C@H](CC(=O)O)[N]6C4=O)C(=O)O)C(=O)O)cc3)nc2c(=O)[nH]1 [^99mTc-EC11]	–	–	–	–	–	–	–	–	–	–	–
–	2.00 ± 0.50	benzoyl-D-Glu-n-Glu-βDpr-Asp-Cys [^99mTc-EC28, reference compound]	failed to appreciably accumulate in the kidneys and tumor	0.06 ± 0.04 % Injected Dose per Gram Tissue	0.03 ± 0.01 % Injected Dose per Gram Tissue	0.47 ± 0.19 % Injected Dose per Gram Tissue	0.62 ± 0.14 % Injected Dose per Gram Tissue	0.50 ± 0.26 % Injected Dose per Gram Tissue	0.05 ± 0.01 % Injected Dose per Gram Tissue	0.02 ± 0.01 % Injected Dose per Gram Tissue	0.60 ± 0.38 % Injected Dose per Gram Tissue	0.21 ± 0.19 % Injected Dose per Gram Tissue	0.11 ± 0.06 % Injected Dose per Gram Tissue
blocked	–	Nc1nc2ncc(CNc3ccc(C(=O)N[C@@H](CCC(=O)NC[C@@H]4[NH2+][99Tc-]56(=[O])[S]C[C@@H](C(=O)O)[N]5C(=O)[C@H](CO)[N]6C4=O)C(=O)O)cc3)nc2c(=O)[nH]1 [^99mTc-EC13]	–	–	–	–	–	–	–	–	–	–	–

Reference: patent US7862798B2, “Vitamin-targeted imaging agents” (Endocyte, Inc., priority 2002, dated 2011)
